These are literature values, as cited in patent US20240115591A1, “THERAPEUTIC METHODS AND COMPOSITIONS FOR TREATING BILIARY TRACT CANCER USING DEVIMISTAT” (Cornerstone Pharmaceuticals, Inc., priority 2020, published 2024).

Series [1] relates to locally advanced or metastatic BTC. The conditions noted are these: for OS (overall survival): 410 patients with locally advanced or metastatic BTC, phase III ABC-02.
The mark [2] stands for this setting: ABC-02, patients with advanced BTC.

`Nc1ccn([C@@H]2O[C@H](CO)[C@@H](O)C2(F)F)c(=O)n1` [gemcitabine, 2′-deoxy-2′,2′-difluorocytidine (β-isomer)]: the “OS (overall survival)” value in series [1] was 8.1 months.
In the case of gemcitabine cisplatin, the “OS (overall survival)” value in series [1] is given as 11.7 months. Also, the objective response rate in series [1] (ABC-02, combination arm) is on record as 26.1%. Also, in series [1] (gemcitabine cisplatin arm versus gemcitabine alone arm, 95% CI 0.52 to 0.80, p<0.001), the “hazard ratio (HR) for OS” value is 0.64. In addition, the “historical ORR (CR+PR)” value in series [1] (historical estimate from Valle et al. 2010, used as null hypothesis for the planned phase 2) is listed as 25%. Also, under setting [2], the “grade 3 and 4 adverse event: abnormal liver function” value is recorded as 16.7%; the “grade 3 and 4 adverse event: anemia” value is reported as 7.6%; the “grade 3 and 4 adverse event: deep vein thrombosis” value was 2%; the “grade 3 and 4 adverse event: fatigue” value is listed as 18.7%. Moreover, under setting [2], the “grade 3 and 4 adverse event: impaired renal function” value is reported as 1.5%; the “grade 3 and 4 adverse event: nausea” value was 4%; the “grade 3 and 4 adverse event: neutropenia” value is 25.3%; the “grade 3 and 4 adverse event: thrombocytopenia” value is reported as 15.7%. For the same compound, under setting [2], the “grade 3 and 4 adverse event: thromboembolic event” value is reported as 3.5%; the “grade 3 and 4 adverse event: vomiting” value is given as 5.1%. The “grade 3 and 4 adverse event: infection” value (in vivo) was 18.2%.
